The subject of one data set is Plasmodium vivax. In words: Radical cure efficacy: any P. vivax recurrence within 4 months in patients, pooled DETECTIVE part 1/2 and GATHER (logistic regression and Emax models). Format: in vivo, human. The source says:
The primary endpoint for the main efficacy analyses was any P. vivax recurrence within 4 months. We chose the binary endpoint of any recurrence rather than the time to first recurrence because tafenoquine has both asexual stage antimalarial activity ([Fukuda et al., 2017]) and hypnozoiticidal activity. […] The choice of a particular cut-off for follow-up is thus a trade-off between sensitivity and specificity. Longer follow-up will increase the sensitivity of the endpoint (include more relapses) but decrease specificity (include more reinfections).
For all predictors we fitted Bayesian mixed effects logistic regression models (random intercepts for study and study site), with adjustment for day 0 parasitaemia (log transformed). Logistic regression allows inference of the odds-ratio for recurrence for the predictive variable of interest, assuming a linear relationship between the predictive variable and log-odds for recurrence.
For the mg/kg dose (the primary predictor of interest), the dose-response relationship was then assessed under a Bayesian Emax model, where the dose-dependent logit probability of recurrence is defined as: Emax(d,x)=α+βx+δd^k/d^k+γ^k,
The Emax model was also fitted with random intercepts for study and study site.
To determine the main predictors of recurrence, we fitted a multivariable penalised Bayesian logistic regression model. This included the following variables as predictors: the tafenoquine mg/kg dose; the plasma tafenoquine AUC[0,∞); the plasma tafenoquine Cmax; the day 7 MetHb concentration (%); the terminal elimination half-life t1/2; and the baseline parasite density. The model included random intercept terms for each study and study site. […] To avoid convergence issues resulting from the co-linearity of the predictors, the prior on all non-hierarchical coefficients was set to a Normal(0,0.5). This prior effectively shrinks the regression coefficients towards zero. It can be interpreted as follows: plausible odds-ratios for recurrence for one standard deviation change for each of the fixed effect predictors lie approximately between 0.38 and 2.7).
In a priori sensitivity analyses, all recurrences up until 6 months were included as both binary and time to event outcomes. The time to first recurrence was defined as a P. vivax episode between day 7 and day 180 with right censoring at the last recorded visit. We also re-ran the same models in patients who received a 300 mg single dose of tafenoquine only (i.e. the current recommended treatment).

For data set [1] the following is noted: no reference given; cited from earlier work.
A further data set concerns blood MetHb. As to the kind of experiment: Blood methaemoglobin (MetHb) concentration on day 7 by pulse CO-oximeter. It counts as in vivo, human. The source says:
All patients in the phase 1 trial and the three efficacy trials had frequent blood MetHb measurements taken using non-invasive signal extraction pulse CO-oximeter handheld machines. For the three efficacy trials, we excluded measurements taken at or after recurrence of vivax malaria. Because erroneous readings from the handheld oximeters can occur, we inspected visually the longitudinal MetHb curves for each patient. […] All patients from this site were excluded from the MetHb analysis ( n =91), resulting in a total of 9632 MetHb measurements across 746 P. vivax infected patients and 72 healthy volunteers.

As to `COc1cc(NC(C)CCCN)c2ncccc2c1` (stereo not drawn) [primaquine], the “posterior probability that the recurrence was more likely following primaquine” value with Plasmodium vivax (3.5 mg/kg primaquine vs 5 mg/kg tafenoquine) was found to be 0.73. Further, the “Recurrence at 4 months” value in the data set on Plasmodium vivax (PQ low-dose 15 mg base daily for 14 days + chloroquine, n=257) is recorded as 57 (22.2) total number (%). The “mean probability of recurrence at 4 months” value in the data set with Plasmodium vivax (logistic model estimate, following 3.5 mg/kg primaquine, 95% CI 0.10–0.26) is given as 0.17. For the same molecule, in data set [1], the terminal elimination half-life was 5 h.
Consider `CCCCN(CCCC)CC(O)c1cc(Cl)cc2c1-c1ccc(Cl)cc1/C2=C/c1ccc(Cl)cc1` (stereo not drawn) [lumefantrine], for which, in the data set with blood MetHb (healthy volunteers randomised to tafenoquine + AL, 95% CI 3 to 62%), the “reduction in day 7 methaemoglobin per ten-fold increase in day 7 plasma lumefantrine concentration” value was 40%.
For `Clc1ccc2c(N3CCN(CCCN4CCN(c5ccnc6cc(Cl)ccc56)CC4)CC3)ccnc2c1` [piperaquine], the “association of day 7 piperaquine concentration with day 7 MetHb (reduction)” value with blood MetHb (healthy volunteers, tafenoquine + DHA-PQP, no clear association, 95% CI –27 to 72%) came to 40%.

Values taken from article PMC9725750, “The clinical pharmacology of tafenoquine in the radical cure of Plasmodium vivax malaria: An individual patient data meta-analysis” (eLife, 2022).
